Columns and labels:
Test in all cases: relative viability (nuclei count vs DMSO), 5 days (fraction); higher = more cells survive
Sulindac + Trametinib = compound: CC1=C(CC(=O)O)c2cc(F)ccc2/C1=C\c1ccc([S+](C)[O-])cc1 [Sulindac] + CC(=O)Nc1cccc(-n2c(=O)n(C3CC3)c(=O)c3c(Nc4ccc(I)cc4F)n(C)c(=O)c(C)c32)c1 [Trametinib] (partner 0.02 µM)
Method in brief: (§1)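 Five library-drug doses in √10 steps were combined with a fixed anchor-drug dose, or a single drug was given alone, by pin tool to lung cancer cell lines in 1536-well plates the day after seeding. Nuclei were stained and counted after 5 days. Relative viability is the nuclei count in treated wells over that in vehicle wells, taken as the median of duplicate plates.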

[1] = compound: O=c1[nH]cc(F)c(=O)[nH]1 [5-Fluorouracil] + N=C(N)NC(=N)NCCc1ccccc1 [Phenformin] (partner 250 µM)
Method in brief: as §1

[2] = compound: O=c1[nH]cc(F)c(=O)[nH]1 [5-Fluorouracil] + O=C(c1cc(Cc2n[nH]c(=O)c3ccccc23)ccc1F)N1CCN(C(=O)C2CC2)CC1 [Olaparib] (partner 8 µM)
Method in brief: as §1

[3] = compound: O=c1[nH]cc(F)c(=O)[nH]1 [5-Fluorouracil] + CC1(C)CCC(c2ccc(Cl)cc2)=C(CN2CCN(c3ccc(C(=O)NS(=O)(=O)c4ccc(N[C@H](CCN5CCOCC5)CSc5ccccc5)c(S(=O)(=O)C(F)(F)F)c4)cc3)CC2)C1 [Navitoclax] (partner 0.5 µM)
Method in brief: as §1

Cell Line	relative viability (Sulindac + Trametinib; first compound 0.08 µM)	relative viability (Sulindac + Trametinib; first compound 0.253 µM)	relative viability (Sulindac + Trametinib; first compound 0.8 µM)	relative viability (Sulindac + Trametinib; first compound 2.53 µM)	relative viability (Sulindac + Trametinib; first compound 8 µM)	relative viability ([1]; first compound 0.02 µM)	relative viability ([1]; first compound 0.2 µM)	relative viability ([1]; first compound 0.6325 µM)	relative viability ([1]; first compound 2 µM)	relative viability ([2]; first compound 0.02 µM)	relative viability ([2]; first compound 0.2 µM)	relative viability ([2]; first compound 0.6325 µM)	relative viability ([2]; first compound 2 µM)	relative viability ([3]; first compound 0.02 µM)	relative viability ([3]; first compound 0.2 µM)	relative viability ([3]; first compound 0.6325 µM)	relative viability ([3]; first compound 2 µM)
NCI-H520	0.787	0.707	0.642	0.691	0.699	0.525	0.677	0.46	0.442	0.294	0.366	0.33	0.258	0.81	1.19	0.873	0.406
NCI-H596	0.892	0.827	–	0.981	0.875	0.863	0.676	0.643	0.508	0.66	0.694	0.57	0.491	0.804	0.753	0.566	0.347
NCI-H647	0.577	0.591	0.358	0.472	0.61	0.504	0.495	0.544	0.399	0.577	0.501	0.434	0.407	1.24	1.06	1.09	0.729
NCI-H727	0.362	0.414	0.378	0.417	0.35	0.532	0.472	0.489	0.495	0.748	0.821	0.747	0.593	0.369	0.41	0.527	0.315
NCI-H838	0.608	0.559	0.456	0.527	0.584	0.544	0.609	0.364	0.245	0.801	0.691	0.45	0.296	1.14	1.06	0.572	0.28
NCI-H1355	0.389	0.462	0.312	0.43	0.42	0.431	0.412	0.296	0.297	0.716	0.485	0.253	0.225	0.699	0.651	0.353	0.241
NCI-H1395	0.966	0.999	0.939	0.949	1.17	0.426	0.458	0.428	0.494	0.481	0.445	0.557	0.479	0.997	1.21	1.07	1.12
NCI-H1437	0.644	0.568	0.461	0.515	0.525	0.238	0.192	0.137	0.173	0.517	0.285	0.222	0.217	–	0.243	0.203	0.139
NCI-H1650	0.599	0.794	0.445	0.491	0.766	0.396	0.444	0.273	0.279	0.797	0.754	0.381	0.229	1.29	0.82	0.63	0.294
NCI-H1651	0.797	0.844	0.733	0.801	0.845	0.395	0.334	0.265	0.341	0.172	0.2	0.188	0.175	1.09	0.9	0.574	0.42
NCI-H1666	0.895	0.889	0.775	0.924	0.93	0.582	0.447	0.392	0.392	0.861	0.67	0.647	0.625	0.878	0.406	0.327	0.311
NCI-H1734	0.673	0.725	0.575	0.693	0.832	0.374	0.436	0.379	0.313	0.586	0.667	0.53	0.393	0.795	0.932	0.765	0.428
NCI-H1755	0.886	0.751	0.775	0.812	0.89	0.667	0.598	0.364	0.256	0.817	0.665	0.374	0.319	0.982	0.757	0.291	0.198
NCI-H1792	0.425	0.393	–	0.512	0.513	0.199	0.365	0.177	0.122	0.467	0.54	0.169	0.175	0.64	0.591	0.131	0.118
NCI-H1793	0.352	0.497	–	0.497	0.481	0.467	0.476	0.42	0.266	0.787	0.9	0.613	0.483	0.385	0.53	0.403	0.289
NCI-H1915	0.303	0.307	0.246	0.302	0.303	–	0.34	0.355	0.361	0.197	0.269	0.22	0.211	0.714	0.8	0.779	0.668
NCI-H1944	0.476	0.418	0.328	0.421	0.487	0.195	0.208	0.157	0.135	0.389	0.379	0.298	0.187	0.926	0.862	0.331	0.24
NCI-H1975	0.382	0.38	0.36	0.356	0.367	0.385	0.357	0.266	0.194	0.805	0.736	0.356	0.21	1.11	1.1	0.514	0.261
